Data as given in article PMC5587766, “Towards designer organelles by subverting the peroxisomal import pathway” (Nature Communications, 2017).
The star is where a group is joined. Dansyl = CN(C)c1cccc2c(S(=O)(=O)*)cccc12

Key:
[1] = tested on: naturally occurring PEX5 receptor; assay: PEX5 (naturally occurring receptor) binding of orthogonal peptide (overall statement)
Excerpt: PEX5 is a modular protein: the C-terminal domain recognizes PTS1 within a funnel-shaped pocket created by 7 α-helical tetratricopeptide repeats (TPRs)[14], while the N-terminal domain of PEX5, which is natively unstructured, is responsible for the docking, cargo delivery, and recycling functions of the receptor[10]. […] The PEX5*-PTS1* pair was discovered by assessing the binding of a range of variants of the C-terminal domain of Arabidopsis thaliana PEX5 (AtPEX5C) with a library of pentapeptides (Fig. 1a). […] PTS1* has low affinity for the naturally occurring PEX5 receptor. Following optimization, the C-terminal PEX5* sequence was combined with the N-terminal domain of PEX5 from the moss Physcomitrella patens (Phypa PEX5N) to create a fully functional PEX5* receptor (Fig. 1a). Concomitant expression of PEX5* with a cargo protein bearing PTS1* results in targeting of the cargo to the peroxisome at the expense of naturally occurring peroxisomal components—a process that was easily visualized in moss cells using fluorescent reporter proteins (Fig. 1b).

[2] = lissamine-labelled peptide, not pursued in FA assay
AtPEX5 TPR domain = conditions: cited from earlier work
Excerpt: The pentapeptide library sequences were based on YQSKL, which has a nM affinity for the AtPEX5 TPR domain[17] and is widely used as a model PTS1 peptide. This sequence was randomized at the two C-terminal positions to create a library of sequences, YQSXX, where X represents any amino acid, which was efficiently prepared using split-and-pool solid-phase peptide synthesis. A dansyl fluorophore introduced at the N-terminus of the peptide added hydrophobicity to improve retention in LC-MS analysis. Deconvolution of Leu- and Ile-containing peptides was enabled by preparation of four sub-librari ...

AtPEX5C D505H = biological target: T1, AtPEX5C D505H (Arabidopsis thaliana, UniProt Q9FMA3 340-728, D505H); assay: pull-down; His6-protein (12.5 µM) incubated with the combined dansyl-YQSXX library (500 nM each peptide) in 50 mM Na2HPO4, 300 mM NaCl, 10 mM 2-mercaptoethanol, 15% glycerol, pH 8.0, 4 °C, 1 h; captured on Co-NTA resin, washed, bound peptides eluted with 6 M urea and identified by ESI-LC-MS; semi-quantitative; conditions: both partners purified
T1 construct: Made by site-directed mutagenesis of His6-AtPEX5 (340-728) in pET-28b; also called D505H variant of AtPEX5C; source: E. coli BL21-Gold (DE3), purified (Co-NTA)
T1 sequence (looked up): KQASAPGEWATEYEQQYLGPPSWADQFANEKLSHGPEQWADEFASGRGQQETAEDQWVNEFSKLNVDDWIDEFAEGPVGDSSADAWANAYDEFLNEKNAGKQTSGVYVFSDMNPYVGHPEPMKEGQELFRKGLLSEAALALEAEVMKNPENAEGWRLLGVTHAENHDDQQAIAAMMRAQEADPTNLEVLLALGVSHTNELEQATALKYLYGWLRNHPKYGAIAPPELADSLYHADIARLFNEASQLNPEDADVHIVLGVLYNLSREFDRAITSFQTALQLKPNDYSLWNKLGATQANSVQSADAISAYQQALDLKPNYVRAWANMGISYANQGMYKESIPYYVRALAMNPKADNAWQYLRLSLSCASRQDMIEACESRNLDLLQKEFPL

AtPEX5C N601A = biological target: T2, AtPEX5C N601A (Arabidopsis thaliana, UniProt Q9FMA3 340-728, N601A); assay: as above; conditions: both partners purified
T2 construct: Made by site-directed mutagenesis of His6-AtPEX5 (340-728) in pET-28b; also called N601A variant; source: E. coli BL21-Gold (DE3), purified (Co-NTA)
T2 sequence (looked up): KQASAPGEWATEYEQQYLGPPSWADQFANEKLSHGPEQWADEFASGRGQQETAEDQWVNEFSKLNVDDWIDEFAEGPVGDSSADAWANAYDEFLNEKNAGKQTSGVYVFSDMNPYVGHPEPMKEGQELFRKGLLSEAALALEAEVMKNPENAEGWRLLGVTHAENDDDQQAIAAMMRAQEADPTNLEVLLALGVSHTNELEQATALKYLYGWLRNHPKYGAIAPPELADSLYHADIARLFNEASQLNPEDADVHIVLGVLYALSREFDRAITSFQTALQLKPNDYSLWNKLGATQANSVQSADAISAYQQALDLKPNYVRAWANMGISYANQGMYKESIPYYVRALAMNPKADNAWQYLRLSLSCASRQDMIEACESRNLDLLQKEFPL

## WWRDPYSPMYQSYY [PTS1*, YQSYY including enhancing upstream residues]
[1]
  affinity for naturally occurring PEX5 receptor: low affinity

## lissamine-labelled YQSFY
[2]
  solubility: poor solubility

## YQSKL [model PTS1 peptide]
AtPEX5 TPR domain
  affinity for AtPEX5 TPR domain: nM affinity

B1: dansyl-YQSFY (peptide)
peptide: Dansyl-YQSFY-OH
SMILES: CN(C)c1cccc2c(S(=O)(=O)N[C@@H](Cc3ccc(O)cc3)C(=O)N[C@@H](CCC(N)=O)C(=O)N[C@@H](CO)C(=O)N[C@@H](Cc3ccccc3)C(=O)N[C@@H](Cc3ccc(O)cc3)C(=O)O)cccc12
notes: member of the YQSXX pentapeptide library; Tested within the combined library of 324 peptides, not alone; source: synthetic peptide, member of the split-and-pool dansyl-YQSXX library
AtPEX5C D505H
  binding result: binds
AtPEX5C N601A
  binding result: binds
